Measured values taken from patent US3997557A, “Substituted N-aminoalkylpyrroles” (American Hoechst Corporation, priority 1974, dated 1976).
Where a name gives a salt, the structure may show the parent alone.

Legend:
central nervous system = assay: Mouse observation procedure of S. Irwin, central nervous system depressant effects (tranquilizer); assay type: in vivo; details: male COBS mice, behavior and reflex depression, muscle relaxation, read-out: minimum effective dose (MED)/Kilogram of body weight
Procedure: The compounds of the invention are useful as tranquilizers because of their depressant effects on the central nervous system. The depressant effects on the central nervous system were evaluated according to the mouse observation procedure of S. Irwin, Psychopharmacologia, 13, 222 (1968). Male COBS mice are dosed with the drug, and its effects on behavior and reflex depression together with muscle relaxation determined by the degree of deviation from control scores, with activity expressed in terms of minimum effective dose (MED). The effectiveness of compounds of the invention as tranquilizers is illustrated in Table I below.

isolated rabbit atrium = assay: Isolated rabbit atrium, increase in functional refractory period (antiarrhythmic); details: Oryctolagus cuniculus; for activation at 1 µM: 10^-6 molar; for activation at 10 µM: 10^-5 molar; for activation at 20 µM: 2 × 10^-5 molar
Procedure: The compounds of the invention are useful as antiarrhythmic agents because of their ability to alleviate cardiac arrhythmias. […] 198] wherein the compounds effect an increase in the functional refractory period. Compounds are dissolved in Krebs-Henseleit solution, and the percent change in the functional refractory period is monitored with an oscilloscope. […] Similarly at a concentration of 10^-^6 molar 1-(3-dimethylaminopropyl)-2-(p-bromophenyl)-4,5,6,7-tetrahydroindole hydrochloride and 1-(2-methylaminoethyl)-2-phenyl-1,4,5,6,7,8-hexahydrocyclohepta[b]pyrrole hydrochloride each effect a 150% increase in the functional refractory period.

[1] = tested on: carrageenin-induced rat paw edema; assay: Carrageenin-induced rat paw edema antiinflammatory assay; assay type: in vivo; details: 200 mg/kg of body weight
Description: The compounds of this invention are useful as antiinflammatory agents because of their ability to suppress inflammation in mammals. […] Exp. Biol. Med. III, 544 (1962)].

[2] = tested on: spontaneous hypertensive rat; assay: Lowering of blood pressure in the spontaneous hypertensive rat, indirect tail cuff method; assay type: in vivo; details: 100 mg/kg of body weight
Procedure: The compounds of this invention are also useful as antihypertensive agents because of their ability to lower blood pressure in mammals. […] 135. For example, at a dose of 100 mg/kg of body weight, the compounds shown in Table III below effect the corresponding decrease in systolic blood pressure.

| Compound | minimal effective dose (central nervous system) [mg/kg] | inhibition in vivo at 200 mg/kg [1] [%] | also measured |
| --- | --- | --- | --- |
| CN(C)CCCn1c(-c2cccc(C(F)(F)F)c2)cc2c1CCCC2 [1-(3-dimethylaminopropyl)-2-(m-trifluoromethylphenyl)-4,5,6,7-tetrahydroindole] | 40 |  |  |
| CNCCn1c(-c2ccccc2)cc2c1CCCCC2.Cl [Example 36, 1-(2-methylaminoethyl)-2-phenyl-1,4,5,6,7,8-hexahydrocyclohepta[b]pyrrole hydrochloride] | 50 |  | activation at 1 µM (isolated rabbit atrium): 150% |
| CCN(CC)CCCn1c(-c2ccccc2)cc2c1CCc1ccccc1-2 [1-(3-diethylaminopropyl)-2-phenyl-4,5-dihydrobenz[e]-indole] | 20 |  |  |
| CN(C)CCCn1c(-c2ccc(Cl)cc2)cc2c1CCCC2 [1-(3-dimethylaminopropyl)-2-(p-chlorophenyl)-4,5,6,7-tetrahydroindole] |  | 44 |  |
| c1ccc(-c2cc3c(n2CCN2CCNCC2)CCCC3)cc1 [Example 5, 1-[2-(1-piperazinylethyl)]-2-phenyl-4,5,6,7-tetrahydroindole . dioxalate] | 10 |  |  |
| CC(C)NC(C)Cn1c(-c2ccc(Cl)cc2)cc2c1CCCC2.Cl (stereo not shown) [Example 21, 1-(2-isopropylaminopropyl)-2-(p-chlorophenyl)-4,5,6,7-tetrahydroindole hydrochloride] | 50 |  |  |
| CNCCCn1c(-c2ccc(OC)cc2)cc2c1CCCCC2.O=C(O)C(=O)O [Example 49, 1-(3-methylaminopropyl)-2-(p-methoxyphenyl)-1,4,5,6,7,8-hexahydrocyclohepta[b]-pyrrole oxalate] | 10 |  |  |
| CN(C)CCCn1c(-c2ccc(N)cc2)cc2c1CCCCCC2.O.O=C(O)C(=O)O.O=C(O)C(=O)O [Example 59, 1-(3-dimethylaminopropyl)-2-(p-aminophenyl)-4,5,6,7,8,9-hexahydrocycloocta[b]pyrrole dioxalate monohydrate] | 25 |  |  |
| CN(C)CCCn1c(-c2ccc(F)cc2)cc2c1CCCCC2.Cl [Example 55, 1-(3-dimethylaminopropyl)-2-(p-fluorophenyl)-1,4,5,6,7,8-hexahydrocyclohepta[b]pyrrole hydrochloride] | 50 |  |  |
| CN(C)CCCn1c(-c2ccc([N+](=O)[O-])cc2)cc2c1CCCCCC2 [Example 58, 1-(3-dimethylaminopropyl)-2-(p-nitrophenyl)-4,5,6,7,8,9-hexahydrocycloocta[b]-pyrrole hydrochloride] |  |  | activation at 10 µM (isolated rabbit atrium): 125% |
| CN(C)CCCn1c(-c2ccc(N)cc2)cc2c1CCCCCC2 [1-(3-dimethylaminopropyl)-2-(p-aminophenyl)-4,5,6,7,8,9-hexahydrocycloocta[b]pyrrole] |  | 57 |  |
| COc1ccc(-c2cc3c(n2CCCN(C)C)CCCC3)cc1.Cl [Example 11, 1-(3-dimethylaminopropyl)-2-(p-methoxyphenyl)-4,5,6,7-tetrahydroindole hydrochloride] | 50 | 44 | activation at 10 µM (isolated rabbit atrium): 300% |
| CN(C)CCCn1c(-c2ccccc2)cc2c1-c1ccccc1CC2.Cl [Example 30, 1-(3-dimethylaminopropyl)-2-phenyl-4,5-dihydrobenz[g]indole hydrochloride] |  |  | decrease in systolic blood pressure [2]: 24 mm Hg |
| CN(C)CCCn1c(-c2ccc(F)cc2)cc2c1CCCCCC2 [Example 60, 1-(3-dimethylaminopropyl)-2-(p-fluorophenyl)-4,5,6,7,8,9-hexahydrocycloocta[b]pyrrole oxalate] |  |  | activation at 10 µM (isolated rabbit atrium): 139% |
| CN(C)CCCn1c(-c2ccccc2)cc2c1CCCC2 [Example 6, 1-(3-dimethylaminopropyl)-2-phenyl-4,5,6,7-tetrahydroindole . HCl] |  | 45 |  |
| CN(C)CCCn1c(-c2ccc(Br)cc2)cc2c1CCCC2 [Example 12, 2-(p-bromophenyl)-1-(3-dimethylaminopropyl)-4,5,6,7-tetrahydroindole hydrochloride] |  |  | activation at 1 µM (isolated rabbit atrium): 150% |
| CC(C)NCCCn1c(-c2ccccc2)cc2c1CCCCC2 [Example 43, 1-(3-isopropylaminopropyl)-2-phenyl-1,4,5,6,7,8-hexahydrocyclohepta[b]pyrrole . oxalate] | 37 |  |  |
| CN(C)CCCn1c(-c2ccccc2)cc2c1CCc1ccccc1-2 [Example 31, hydrochloride] | 20 | 56 | decrease in systolic blood pressure [2]: 30 mm Hg |

| Compound | minimal effective dose (central nervous system) [mg/kg] | inhibition in vivo at 200 mg/kg [1] [%] | also measured |
| --- | --- | --- | --- |
| CN(C)CCCn1c(-c2ccccc2)cc2c1CCCCC2.Cl [Example 40, 1-(3-dimethylaminopropyl)-2-phenyl-1,4,5,6,7,8-hexahydrocyclohepta[b]pyrrole hydrochloride] | 25 |  | activation at 10 µM (isolated rabbit atrium): 275%; decrease in systolic blood pressure [2]: 50 mm Hg |
| CN(C)CCCn1c2c(c(-c3ccccc3)c1-c1ccccc1)CCCC2.O.O=C(O)C(=O)O [Example 28, 1-(3-dimethylaminopropyl)-2,3-diphenyl-4,5,6,7-tetrahydroindole oxalate monohydrate] | 25 |  |  |
| CNCCn1c(-c2cccc(C(F)(F)F)c2)cc2c1CCCC2 [Example 14] | 25 |  | activation at 20 µM (isolated rabbit atrium): 200% |
| CC(CN(C)C)n1c(-c2ccccc2)cc2c1CCCCC2 (stereo not shown) [Example 38, 1-(1-methyl-2-dimethylaminoethyl)-2-phenyl-1,4,5,6,7,8-hexahydrocyclohepta[b]pyrrole . oxalate] | 6 | 58 |  |
| CCN(CC)CCCn1c(-c2ccccc2)cc2c1CCc1ccccc1-2 [Example 32, hydrochloride] |  | 72 | decrease in systolic blood pressure [2]: 40 mm Hg |
| COc1cc(-c2cc3c(n2CCCN(C)C)CCCCC3)cc(OC)c1OC.Cl [Example 54, 1-(3-dimethylaminopropyl)-2-(3,4,5-trimethoxyphenyl)-1,4,5,6,7,8-hexahydrocyclohepta[b]pyrrole hydrochloride] | 50 |  |  |
| CN(C)CCCn1c(-c2ccccc2)cc2c1CCCCCC2.Cl [Example 56, 1-(3-dimethylaminopropyl)-2-phenyl-4,5,6,7,8,9-hexahydrocycloocta[b]pyrrole hydrochloride] |  |  | decrease in systolic blood pressure [2]: 50 mm Hg |
| CCNCCn1c(-c2ccccc2)cc2c1CCCCCC2.O=C(O)C(=O)O [Example 57, 1-(2-ethylaminoethyl)-2-phenyl-4,5,6,7,8,9-hexahydrocycloocta[b]pyrrole oxalate] | 25 |  |  |
| CC(C)N(CCn1c(-c2ccc(O)cc2)cc2c1CCCC2)C(C)C [Example 23, 1-(2-diisopropylaminoethyl)-2-(p-hydroxyphenyl)-4,5,6,7-tetrahydroindole] |  | 44 |  |
| CNCCCn1c(-c2ccccc2)cc2c1CCC2.O=C(O)C(=O)O [Example 34, 1-(3-methylaminopropyl)-2-phenyl-1,4,5,6-tetrahydrocyclopenta[b]pyrrole oxalate] | 25 |  |  |
| CC(CN(C)C)n1c(-c2cccc(C(F)(F)F)c2)cc2c1CCCC2 (stereo not shown) [1-(1-methyl-2-dimethylaminoethyl)-2(m-trifluoromethylphenyl)-4,5,6,7-tetrahydroindole . HCl] |  | 46 |  |
| CN(C)CCn1c(-c2ccccc2)cc2c1CCCC2 [Example 1, 1-(2-dimethylaminoethyl)-2-phenyl-4,5,6,7-tetrahydroindole hydrochloride] |  | 47 | activation at 20 µM (isolated rabbit atrium): 25% |
| CCN(CC)CCn1c(-c2ccccc2)cc2c1CCC(C(C)(C)C)C2.Cl (stereo not shown) [Example 25, 1-(2-diethylaminoethyl)-2-phenyl-5-(t-butyl)-4,5,6,7-tetrahydroindole hydrochloride] | 20 |  | decrease in systolic blood pressure [2]: 30 mm Hg |
| CCN(CC)CCn1c(-c2ccccc2)cc2c1CCC(C)C2 (stereo not shown) [Example 24, 1-(2-diethylaminoethyl)-2-phenyl-5-methyl-4,5,6,7-tetrahydroindole hydrochloride] |  |  | activation at 10 µM (isolated rabbit atrium): 208% |
| CN(C)CCn1c(-c2ccccc2)cc2c1CCCCC2 [Example 37, 1-(2-dimethylaminoethyl)-2-phenyl-1,4,5,6,7,8-hexahydrocyclohepta[b]pyrrole . HCl] |  |  | decrease in systolic blood pressure [2]: 45 mm Hg |
| CCNCCn1c(-c2ccccc2)cc2c1CCCC2 [Example 3, 1-(2-ethylaminoethyl)-2-phenyl-4,5,6,7-tetrahydroindole . oxalate] | 25 |  |  |
| CN(C)CCCn1c(-c2ccccc2)cc2c1CCC2.Cl [Example 35, 1-(3-dimethylaminopropyl)-2-phenyl-1,4,5,6-tetrahydrocyclopenta[b]pyrrole hydrochloride] | 50 |  | activation at 20 µM (isolated rabbit atrium): 233% |
| CNCCn1c(-c2cccc(C(F)(F)F)c2)cc2c1CCCC2 [1-(2-methylaminoethyl)-2-(m-trifluoromethylphenyl)-4,5,6,7-tetrahydroindole] |  | 58 |  |
